From patent US9540343B2 (Gilead Sciences, Inc., priority 2011, dated 2017)

Experiments:
in vitro = experiment: in vitro
Outline: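 Cytoprotection read-out: CellTiter-Glo chemiluminescence after 5 days at 37 °C of HIV-IIIb-infected MT-4 cells (m.o.i. 0.003) with compound in 10-point 3-fold dilutions, quadruplicate, 10% FBS. Cytotoxicity (CC50) measured identically without virus.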

HIV-IIIb = experiment: Test A: Antiviral assay in MT4 cells; assay type: cell-based, HIV-1; settings: Human immunodeficiency virus 1, IIIB, MT4, 120 h, read-out: % inhibition at 2 μM, percent inhibition of virus-induced cell killing, from dose response curve at 2 uM drug; MT-4 cells infected with HIV-IIIb, 5 days, CellTiter-Glo
[1] = human, uninfected MT-4 cells, CC50 (nM), same protocol as Test A, CellTiter-Glo

Row | Compound | CC50 at 5 days (in vitro; [1]) [nM] | inhibition at 2 µM (HIV-IIIb) [%] | CC50 at 5 days (in vitro; human, CC50 (nM), uninfected MT-4 cells, same protocol as Test A, CellTiter-Glo) [nM]
1 | O=C(Cc1c[nH]c2ccc(F)cc12)N[C@@H](Cc1cc(F)cc(F)c1)c1ncccc1-c1cccc(C(F)(F)F)c1 [Example 110, (S)—N-(2-(3,5-difluorophenyl)-1-(3-(3-(trifluoromethyl)phenyl)pyridin-2-yl)ethyl)-2-(5-fluoro-1H-indol-3-yl)acetamide] | 7610 | 6 | 
2 | Cc1ccc2c(c1)C(CC(=O)N[C@@H](Cc1cc(F)cc(F)c1)c1ncccc1-c1ccc(F)c(C(N)=O)c1)C(=O)N2 (stereo partly drawn) [Example 193, 5-(2-((1S)-2-(3,5-difluorophenyl)-1-(2-(5-methyl-2-oxoindolin-3-yl)acetamido)ethyl)pyridin-3-yl)-2-fluorobenzamide] | > 53200 | 2 | 
3 | Cc1c(Br)c(C(F)(F)F)nn1CC(=O)N[C@@H](Cc1cc(F)cc(F)c1)c1ncccc1-c1ccc(F)c(C(N)=O)c1 [Example 275, (S)-5-(2-(1-(2-(4-bromo-5-methyl-3-(trifluoromethyl)-1H-pyrazol-1-yl)acetamido)-2-(3,5-difluorophenyl)ethyl)pyridin-3-yl)-2-fluorobenzamide] | 16900 | 53 | 
4 | COc1ccc(-c2cccnc2[C@H](Cc2cc(F)cc(F)c2)NC(=O)Cc2c[nH]c3ccc(F)cc23)cn1 [Example 64, (S)—N-(2-(3,5-difluorophenyl)-1-(6′-methoxy-3,3′-bipyridin-2-yl)ethyl)-2-(5-fluoro-1H-indol-3-yl)acetamide] | 21100 | 88 | 
5 | O=C(Cc1c[nH]c2ccc(F)cc12)NC(Cc1cc(F)cc(F)c1)c1nc[nH]c(=O)c1-c1ccc(Cl)cc1 (stereo not shown) [Example 328, N-(1-(5-(4-chlorophenyl)-6-oxo-1,6-dihydropyrimidin-4-yl)-2-(3,5-difluorophenyl)ethyl)-2-(5-fluoro-1H-indol-3-yl)acetamide] | 10000 | 0 | 
6 | O=C(Cn1nc(C(F)F)c2c1C(F)(F)C1CC21)N[C@@H](Cc1cc(F)cc(F)c1)c1ncccc1-c1cnc2cc[nH]c2c1 (stereo partly drawn) [Example 77, (S)—N-(1-(3-(1H-pyrrolo[3,2-b]pyridine-6-yl)-pyridin-2-yl)-2-(3,5-difluorophenyl)ethyl)-2-(3-(difluoromethyl)-5,6-dihydro-4,5-(methano)-6,6-difluoro-cyclopenta[c]pyrazol-1(4H)-yl)acetamide] | 12400 | 65 | 
7 | CC(C)(C)OC(=O)N1[C@@H](C(=O)N[C@@H](Cc2cc(F)cc(F)c2)c2ncccc2-c2ccc(F)c(C(N)=O)c2)CC[C@H]1c1ccccc1 [Example 158, (2R,5S)-tert-butyl 2-((S)-1-(3-(3-carbamoyl-4-fluorophenyl)pyridin-2-yl)-2-(3,5-difluorophenyl)ethylcarbamoyl)-5-phenylpyrrolidine-1-carboxylate] | 8500 | 0 | 
8 | Cc1ccccc1-c1cccnc1C(Cc1ccccc1)NC(=O)Cn1nc(C(F)(F)F)c2c1CCCC2 (stereo not shown) [Example 2, N-(2-phenyl-1-(3-(o-tolyl)pyridin-2-yl)ethyl)-2-(3-(trifluoromethyl)-4,5,6,7-tetrahydro-1H-indazol-1-yl)acetamide] | 14000 | 29 | 
9 | NC(=O)c1cc(-c2cccnc2[C@H](Cc2cc(F)cc(F)c2)NC(=O)Cn2nc(C(F)(F)F)cc2C2CC2)ccc1F [Example 138, (S)-5-(2-(1-(2-(5-cyclopropyl-3-(trifluoromethyl)-1H-pyrazol-1-yl)acetamido)-2-(3,5-difluorophenyl)ethyl)pyridin-3-yl)-2-fluorobenzamide] | 24500 | 30 | 
10 | Cc1cc2cc(F)ccc2n1CC(=O)N[C@@H](Cc1cc(F)cc(F)c1)c1ncccc1-c1cccc(C(N)=O)c1 [Example 575B, (S)-3-(2-(2-(3,5-difluorophenyl)-1-(2-(5-fluoro-2-methyl-1H-indol-1-yl)acetamido)ethyl)pyridin-3-yl)benzamide] | 17400 | 14 | 
11 | NC(=O)c1cc(-c2cccnc2[C@H](Cc2cc(F)cc(F)c2)NC(=O)Cn2nc(C(F)F)c3c2C(F)(F)CCC3=O)ccc1F [Example 285G, (S)-5-(2-(1-(2-(3-(difluoromethyl)-7,7-difluoro-4-oxo-4,5,6,7-tetrahydro-1H-indazol-1-yl)acetamido)-2-(3,5-difluorophenyl)ethyl)pyridin-3-yl)-2-fluorobenzamide] | 48500 | 58 | 
12 | O=C(Cc1c[nH]c2ccc(F)cc12)N[C@@H](Cc1cc(F)cc(F)c1)c1ncccc1-c1ccc(Cl)c(F)c1 [Example 434] | 12300 | 20 | 
13 | NC(=O)c1cc(-c2cccnc2[C@H](Cc2cc(F)cc(F)c2)NC(=O)Cn2nc(C(F)(F)F)c3c2C(F)(F)CC3)ccc1F [Example 283C, (S)-5-(2-(1-(2-(6,6-difluoro-3-(trifluoromethyl)-5,6-dihydrocyclopenta[c]pyrazol-1(4H)-yl)acetamido)-2-(3,5-difluorophenyl)ethyl)pyridin-3-yl)-2-fluorobenzamide] | 24400 | 65 | 
14 | COc1ccc(-c2cccnc2[C@H](Cc2ccccc2)NC(=O)Cc2c[nH]c3ccc(O)cc23)cc1 [Example 20, (S)-2-(5-hydroxy-1H-indol-3-yl)-N-(1-(3-(4-methoxyphenyl)pyridin-2-yl)-2-phenylethyl)acetamide] | 48300 | 84 | 
15 | CCC(C(=O)N[C@@H](Cc1cc(F)cc(F)c1)c1ncccc1-c1ccc(F)c(C(N)=O)c1)n1ccc(C(F)(F)F)n1 (single isomer, unassigned) [Example 572B] | 36700 | 11 | 
16 | NC(=O)c1cccc(-c2cccnc2[C@H](Cc2cc(F)cc(F)c2)NC(=O)Cc2c[nH]c3cc(C(F)(F)F)ccc23)c1 [Example 527E, (S)-3-(2-(2-(3,5-difluorophenyl)-1-(2-(6-(trifluoromethyl)-1H-indol-3-yl)acetamido)ethyl)pyridin-3-yl)benzamide] | 10600 | 66 | 
17 | Cc1cc2ncn(CC(=O)N[C@@H](Cc3cc(F)cc(F)c3)c3ncccc3-c3cccc(S(=O)(=O)NC4CC4)c3)c2cc1C [Example 353B, (S)—N-(1-(3-(3-(N-cyclopropylsulfamoyl)phenyl)pyridin-2-yl)-2-(3,5-difluorophenyl)ethyl)-2-(5,6-dimethyl-1H-benzo[d]imidazol-1-yl)acetamide] | 12700 | 110 | 
18 | O=C(Cn1nc(C(F)F)c2c1C(F)(F)C1CC21)N[C@@H](Cc1cc(F)cc(F)c1)c1ncccc1-c1cnc2nccnc2c1 (stereo partly drawn) [Example 85, (S)—N-(1-(3-(pyrido[2,3-b]pyrazin-7-yl)-pyridin-2-yl)-2-(3,5-difluorophenyl)ethyl)-2-(3-(difluoromethyl)-5,6-dihydro-4,5-(methano)-6,6-difluoro-cyclopenta[c]pyrazol-1(4H)-yl)acetamide] | 43000 | 9 | 
19 | NC(=O)c1cc(-c2cccnc2[C@H](Cc2cc(F)cc(F)c2)NC(=O)Cn2nc(C(F)F)c3c2CC2CC32)ccc1F (single isomer, unassigned) [Example 248] | 26500 | 88 | 
20 | CC(C)(CC(=O)N[C@@H](Cc1cc(F)cc(F)c1)c1ncccc1-c1ccc(F)c(C(N)=O)c1)n1ccc(C(F)(F)F)n1 (single isomer, unassigned) [Example 478E] |  | 0 | 21500
